Reference: patent US12269816B2, “Benzothiophene compound, preparation method therefor and use thereof” (SICHUAN KELUN-BIOTECH BIOPHARMACEUTICAL CO., LTD., priority 2019, dated 2025)

Tests used:
Assay type in all cases: cell-based
[1] = system: STING pathway cytokine mIFN-β in mouse Raw264.7 cells; assay: ELISA of STING pathway cytokine mIFN-β expression in mouse Raw264.7 cells; settings: for Emax: highest expression of mIFN-β; for Emax / EC50: 6 h, ELISA; for EC50: mIFN-β expression; for agonistic effect on the expression of mIFN-β: result in words
Text: In this experiment, the expression of STING signal pathway cytokine mIFN-β was detected in Raw264.7 cells (Nanjing Cobioer) by the ELISA method, so as to evaluate the agonistic effect of the compound to be tested on the expression of STING pathway cytokine mIFN-β at the cellular level.
Raw264.7 cells (Nanjing Cobioer) in the logarithmic phase were centrifuged, and resuspended in a cell culture solution to a density of 1.6×10^6 cells/ml. The cell suspension was inoculated into a 24-well cell culture plate (Corning) at 250 μL/well. The mother liquor of the compound to be tested was gradiently diluted with a cell culture solution to obtain a 2× working concentration diluted solution (control compound 1 was diluted at a 3-fold gradient: 200, 66.67, 22.22, 7.41, 2.47, 0.82, 0.27 and 0 μM; control compound 2 was diluted at a 2-fold gradient: 200, 100, 50, 25, 12.5, 6.25, 3.125 and 0 μM; and compounds 4, 6 and 8 were diluted at a 4-fold gradient: 200, 50, 12.5, 3.13, 0.78, 0.20, 0.049 and 0 μM). The 2× working concentration diluted solution of the compound was added into a 24-well plate (250 μl of the culture solution containing 2% DMSO was added into the negative control well) at 250 μL/well. The culture plate was then placed in a cell incubator, and incubated for 6 h. After the cell incubation, the supernatant was collected by centrifugation at 300 g×5 min, and the mIFN-β content (pg/ml) in the cell culture supernatant was detected according to the operating instructions of the VeriKinem Mouse IFN Beta ELISA Kit from PBL (obtained by conversion of the OD450 nm absorbance-mIFN-β standard concentration standard curve and the OD450 nm absorbance value read by the microplate reader). EC50 was calculated through log(agonist) vs. response—Variable slope fitting by the Graphpad Prism software, and the experimental results are shown in Table 3.
In the table, EC50 refers to the concentration of a compound when the expression of mIFN-β generated by stimulation of the compound reaches half of Emax; and Emax refers to the highest expression of mIFN-β generated by stimulation of the compound.

[2] = system: STING and its downstream proteins TBK1 and IRF3 in THP-1 cells; assay: Western blotting of phosphorylation of STING signal pathway proteins in human THP-1 cells; settings: 3 hours, protein blotting, FIGS. 1-5, result in words
Text: In this experiment, the changes in the phosphorylation levels of STING and its downstream proteins TBK1 (TANK-binding kinase 1) and IRF3 (interferon regulatory factor 3) were detected by protein blotting to evaluate the agonistic effect of the test compounds on the STING signal pathway at the cellular level.
The THP-1 cells in the logarithmic phase were centrifuged, and resuspended in a cell culture solution to a density of […]. The cell suspension was inoculated into a 12-well cell culture plate (Corning) at 0.5 mL/well. The compound to be tested was diluted with a cell culture solution to 2× working solution concentration (control compounds 1 and 2: 60 μM; compounds 1 and 3: 0.6 μM, 6 μM, and 60 μM; compounds 2, 4, 6 and 8: 6 μM, 20 μM, and 60 μM). 0.5 mL of the diluted solution of the compound was added into a 12-well plate (500 μl of the culture solution containing 2% DMSO was added into the negative control well), and the plate was incubated in a cell incubator for 3 hours. After the incubation, the cells were collected by centrifugation, lysed with 60 μL cell lysis buffer (CST) for 30 minutes, and centrifuged at 12,000 rpm for 15 minutes. The supernatant was collected to determine the protein concentration, and then an appropriate amount of 5× protein loading buffer was added. The mixture was heated at 95° C. for 10 minutes to prepare a protein electrophoresis sample. Finally protein blotting was performed to detect the phosphorylation level of the corresponding protein. The primary antibodies used in the protein blotting were purchased from CST: STING (D2P2F) rabbit mAb, Phospho-STING (Ser366) rabbit mAb, Phospho-IRF3 (Ser396) (D601M) rabbit mAb, IRF3 (D83B9) rabbit mAb, TBK1/NAK (D1B4) rabbit mAb, Phospho-TBK1/NAK (Ser172) (D52C2) XP® rabbit mAb, and GAPDH (D16H11) rabbit mAb; and the secondary antibody horseradish peroxidase-conjugated goat anti-rabbit IgG (H+L) was purchased from Zsgb-bio.

[3] = system: STING pathway cytokine hIFN-β in human THP-1 cells; assay: ELISA of STING pathway cytokine hIFN-β expression in human THP-1 cells; settings: for EC50: hIFN-β expression; for EC50 / Emax: 8 hours, ELISA; for Emax: highest expression of hIFN-β; for agonistic effect on the expression of hIFN-β: result in words
Text: In this experiment, the expression of STING signal pathway cytokine hIFN-β was detected in THP1 cells (Nanjing Cobioer) by the ELISA method, so as to evaluate the agonistic effect of the compounds to be tested on the expression of STING pathway cytokine hIFN-β at the cellular level.
THP1 cells (Nanjing Cobioer) in the logarithmic phase were centrifuged, and resuspended in a cell culture solution to a density of 8×10^6 cells/ml. The cell suspension was inoculated into a 24-well cell culture plate (Corning) at 250 μL/well.
The mother liquor of the compound to be tested was diluted with a cell culture solution to obtain a 2× working concentration diluted solution (control compounds 1 and 2 were diluted at a 2-fold gradient: 200, 100, 50, 25, 12.5, 6.25, 3.125, 1.5625 and 0 μM; and compounds 4, 6, and 8 were diluted at a 3-fold gradient: 200, 66.67, 22.22, 7.41, 2.47, 0.82, 0.27, 0.091 and 0 μM). The 2× working concentration diluted solution of the compound was added into 24-well plate (250 μl of the culture solution containing 2% DMSO was added into the negative control well) at 250 μL/well. The culture plate was placed in a cell culture incubator, and incubated for 8 hours. After the cell incubation, the supernatant was collected by centrifugation at 300 g×5 min, and the hIFN-β content (pg/ml) in the cell culture supernatant was detected according to the operating instructions of the VeriKine Human […] ELISA kit from PBL (obtained by conversion of the […] absorbance-hIFN-β standard concentration standard curve and the OD450 nm absorbance value read by the microplate reader). […] was calculated through log(agonist) vs. response—Variable slope fitting by the Graphpad Prism software, and the experimental results are shown in Table 2.
In the table, EC50 refers to the concentration of a compound when the expression of hIFN-β generated by stimulation of the compound reaches half of Emax and Emax refers to the highest expression of hIFN-β generated by stimulation of the compound.

SMILES	Emax [1] [pg/mL]	EC50 [1] [µM]	agonistic effect on the expression of mIFN-β [1]	agonistic effect on the phosphorylation levels of STING, TBK1 and IRF3 [2]	EC50 [3] [µM]	Emax [3] [pg/mL]	agonistic effect on the expression of hIFN-β [3]
COc1cc2sc(C(=O)CCC(=O)O)cc2cc1OCCCOc1cc2cc(C(=O)N(C)CCC(=O)O)sc2cc1OC [Compound 8, 4-(5-(3-((2-((2-carboxyethyl)(methyl)carbamoyl)-6-methoxybenzo[b]thiophen-5-yl)oxy)propoxy)-6-methoxybenzo[b]thiophen-2-yl)-4-oxobutanoic Acid]	1176.75	0.56	strong agonistic effect	strong agonistic effects	1.25	917.1	strong agonistic effect
COc1cc2sc(C(=O)CCC(=O)O)cc2cc1OCCCOc1cc2sc(C(=O)N(C)CCC(=O)O)cc2cc1OC [Compound 6, 4-(5-(3-((2-((2-carboxyethyl)(methyl)carbamoyl)-5-methoxybenzo[b]thiophen-6-yl)oxy)propoxy)-6-methoxybenzo[b]thiophen-2-yl)-4-oxobutanoic acid]	1012.51	3.8	strong agonistic effect	strong agonistic effects	1.82	829.6	strong agonistic effect
COc1cc2sc(C(=O)N(C)CCC(=O)O)cc2cc1OCCCOc1cc2sc(C(=O)CCC(=O)O)cc2cc1OC [Compound 4, 4-(6-(3-((2-((2-carboxyethyl)(methyl)carbamoyl)-6-methoxybenzo[b]thiophen-5-yl)oxy)propoxy)-5-methoxybenzo[b]thiophen-2-yl)-4-oxobutanoic acid]	1082.21	3.6	strong agonistic effect	strong agonistic effects	5.57	908.0	strong agonistic effect
